Assays:
Zebra fish embryos = assay: Zebrafish embryo model system, incubation of dechorionated two-cell stage embryos with drug; format: in vivo, Danio rerio
Description: ZF eggs were removed from their chorions by mild digestion in 1% Trypsin-EDTA (Sigma, St.Louis, Mo.) for 10 minutes at 28.5° C. (Standard temperature—ST), washed three times in “egg water” and twice in “embryonic medium” (EM), according to recommendations (Westerfield, The Zebrafish Book, Supra). The dechorionated two-cell stage cleaving eggs were transferred to the 24-well plastic cell culture plates (Costar, Cambridge, Mass.) filled with EM. Dechorionated embryos (10-12 per well) were exposed to the drugs at a constant ST for 0.5-24 hours. The final volume of the media in each well was 500 μL. The compound was tested at concentrations ranging from 10 μM to 4 mM. First dissolved in DMSO, it was then diluted serially with the incubation medium. The final concentration of DMSO in the wells was 1.2%. […]
(§1) Observations of cell division and development of the ZF embryos were carried out using a SMZ-10A stereo microscope (Nicon, Melville, N.Y.), once every 30 minutes within the first 3 hours of incubation and at 6, 12 and 24 hours, as well. […] The absorbance of each well was measured in a microplate reader (Labsystems) at 540 nm and a reference wavelength of 690 nm. The percent survival and the IC50 values were calculated using Graphpad Prism software version 2.0 (Graphpad Software, Inc., San Diego, Calif.), as described previously. […]

two-cell stage ZF eggs = assay: Zebrafish embryo microinjection into cytoplasm of two-cell stage eggs; format: in vivo, Danio rerio
Description: Microinjections were performed with the help of a SMZ-10A stereo microscope (Nicon, Melville, N.Y.) and transjector 5246 (Eppendorf Scientific Inc, Westbury, N.Y. 11590) at RT. The eggs in chorions were restrained in agar grooves filled with EM, and the drug containing solution was introduced into the cytoplasm of one of the blastomeres of the two-cell stage eggs through a micropipette with a splinted sharp tip of 2-3 μm in diameter. All microinjections were performed under visual control. Drugs for injection were dissolved in Hank's Balanced Salt Saline (Gibco, Rockville, Md.) with 10% DMSO. The volume of the solution injected into each blastomere was approximately […]. For every drug, 40-50 embryos were injected in 30 minutes of one series of experiment. After the treatment the embryos were transferred back to ST and studied as above.
as §1

[1] = test system: CAMs of growing chick embryos; assay: Chick embryo chorioallantoic membrane (CAM) assay, inhibition of angiogenesis; format: in vivo, chick (white Leghorn chicken); conditions: for Avascular Zone: assessed 48 hours after implantation
Description: Inhibition of embryonic angiogenesis was determined using a bioassay system involving CAMs of growing chick embryos, as previously described (Nguyen et al, Microvascular Research, 47:31, 1994; Auerbach et al, Developmental Biology, 41:391, 1974). Fertilized white Leghorn chicken eggs were received at day 3 of incubation from the University of Minnesota Poultry Research Center, St. Paul, Minn. The following procedures took place in a sterile laminar flow hood. The eggs were wiped down with 70% isoprpyl alcohol and allowed to air dry. The eggs were wiped with Betadine and placed in a horizontal position for approximately 5 minutes and allowed to dry. The eggs were cracked and placed into sterile 100×20 mm^2 Petri dishes (Fischer, Itasca, Ill.) and transferred to a 37° C. humidified incubator (1.5% CO2). […] Louis, Mo.) were prepared by pipetting 10 μl of the compound, using a positive displacement pipette, onto sterile Teflon™ PFA Petri dishes (VWR, Chicago, Ill.) and drying in a vacuum desiccator at ambient temperature. […] The eggs were returned to a humidified 1.5% CO2/37° C. incubator.
Inhibition of angiogenesis was assessed 48 hours after implantation by measuring the avascular one in the CAM beneath the pellet, followed by photographic documentation of the CAM. Pellets containing 200 μg suramin (Calbiochem, La Jolla, Calif.) served as a positive control. The methylcellulose disk alone with no added compounds served as a negative control. Significant inhibition of angiogenesis was defined as the presence of an avascular zone of at least 3 mm in diameter around the methylcellulose disk.

[2] = test system: breast cancer cell line BT-20; assay: MTT cytotoxicity assay; format: cell-based, human; conditions: BT-20, MTT, 48 hours; read-out: IC50 inhibition of proliferation
Description: (§2) Observations of cell division and development of the ZF embryos were carried out using a SMZ-10A stereo microscope (Nicon, Melville, N.Y.), once every 30 minutes within the first 3 hours of incubation and at 6, 12 and 24 hours, as well. […] The stereo microscope was fitted with a specially designed transparent heating tray in order to keep embryos at ST during observations. Pictures of the embryos were taken with a H-III Photomicrographic System (Nicon, Melville, N.Y.) using Ektachrome 64X film (Kodak, Rochester, N.Y.). Cytotoxicity MTF Assays The cytotoxicity of [VCp2(acac)](CF3SO3) against human cancer cell lines was performed as described previously (Ghosh et al, Clinc Canc Res, 6:1536, 2000) using the MTT (3-[4,5-dimethylthiazol-2-yl]-2,5-diphenyl tetrazolium bromide) assay (Boehringer Mannheim Corp., Indianapolis, Ind.). Briefly, exponentially growing tumor cells were seeded into a 96-well plate at a density of 2.5×10^4 cells/well and incubated [VCp2(acac)](CF3SO3) or 0.1% DMSO in PBS concentrations ranging from 0.1 to 250 μM. Following incubation with drug for 48 hours at 37° C., to each well, 10 μl of MTT (0.5 mg/ml final concentration) was added and the plates were incubated at 37° C. for 4 hours to allow MTT to form formazan crystals by reacting with metabolically active cells. The formazan crystals were solubilized overnight at 37° C. in a solution containing 10% SDS in 0.01 M HCl. The absorbance of each well was measured in a microplate reader (Labsystems) at 540 nm and a reference wavelength of 690 nm. The percent survival and the IC50 values were calculated using Graphpad Prism software version 2.0 (Graphpad Software, Inc., San Diego, Calif.), as described previously. Ghosh et al, Clinc Canc Res, 6:1536, 2000.

[3] = test system: breast cancer cell line MDA-MB-231; assay: MTT cytotoxicity assay; format: cell-based, human; conditions: MDA-MB-231, MTT, 48 hours; read-out: IC50 inhibition of proliferation
Description: as §2

[4] = test system: glioblastoma cell line U373; assay: MTT cytotoxicity assay; format: cell-based, human; conditions: 48 hours, read-out: IC50 inhibition of proliferation
Description: as §2

[5] = test system: BT-20 breast cancer cells; assay: Immunocytochemistry and confocal microscopic analysis of mitotic spindles; format: cell-based, human; conditions: BT-20 cells, α-tubulin and DNA staining, confocal laser scanning microscopy
Description: At the appropriate time points coverslips containing BT-20 cells were fixed in−20° C. methanol for 15 minutes followed by 15 minutes incubation in phosphate buffered saline +0.1% Triton X-100 (PBS-Tx). Coverslips were next incubated with a primary antibody recognizing α-tubulin (Sigma, St.Louis Mo.) for 40 minutes in a humidified chamber at 37° C. Coverslips were washed for 15 minutes in PBS-Tx followed by a 40 minutes incubation with a fluorescently labeled secondary antibody (Jackson Immunoresearch, West Grove, Pa.). The coverslips were again rinsed in PBS-Tx and incubated with 5 μM Toto-3 (Molecular Probes, Eugene Oreg.) for 20 minutes to label the DNA. Coverslips were immediately inverted onto slides in Vectashield (Vector Labs, Burlingame, […].) to prevent photobleaching, sealed with nail polish and stored at 4° C.
Slides were examined using a Bio-Rad MRC-1024 Laser Scanning Confocal Microscope mounted on a Nikon Eclipse E800 upright microscope with high numerical aperture objectives. Slides were examined to determine the percentage of cells in interphase vs. mitosis and representative images were taken. Digital data was processed using Lasersharp (Bio-Rad, Hercules, Calif.) and Photoshop (Adobe Systems, Mountain View, Calif.) software and printed on a Pictrography printer (Fuji Photo Elmsford, N.Y.)

Compound: CC(=O)C=C(C)[O-].O=S(=O)([O-])C(F)(F)F.[V+4].c1cc[cH-]c1.c1cc[cH-]c1 [VDacac, Vanadocene acetylacetonato monotriflate]
- effect on cell division / embryonic development (Zebra fish embryos; 0.6 mM in embryonic medium, 28.5° C.): cell division block at the 8-16 cell stage of embryonic development followed by total cell fusion and developmental arrest
- effect on cell division / embryonic development (Zebra fish embryos; concentrations lower than 0.6 mM, within 120 minutes of incubation): cell proliferation continued but was abnormal
- anti-proliferative effect after microinjection (two-cell stage ZF eggs; 1 pmol/embryo microinjected): formation of a blastocoel-like cavity in the blastoderm of late blastulae and early gastrulae and disrupted further gastrulation
- anti-proliferative effect after microinjection (two-cell stage ZF eggs; 40 pmols/cell microinjected): slowed down cell division and resulted in deterioration of the cell localization pattern and developmental block
- Avascular Zone ([1]; VDacac 1 (mg) pellet on CAM): 7.0 ± 1.5 mm^2
- Avascular Zone ([1]; VDacac 10 (mg) pellet on CAM): 38.4 ± 16.6 mm^2
- Avascular Zone ([1]; VDacac 100 (mg) pellet on CAM): 92.4 ± 24.9 mm^2
- effect on angiogenesis in CAM ([1]; methylcellulose disks, doses ranging from 1 μg to 100 μg, 4-6 day old chick embryos): rapidly inhibited angiogenesis and produced within one hour a large avascular zone
- IC50 [2]: 25.1 µM
- IC50 [3]: 9.6 µM
- IC50 [4]: 35.7 µM
- mitotic spindle organization [5]: aberrant monopolar mitotic structures
